Reference: ChEMBL document CHEMBL1201862, “PubChem BioAssay data set” (2004)
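Results reflect a 48-hour exposure of cells in 96-well plates to compound at five concentrations. GI50 = concentration required for 50% inhibition of growth.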 Calls of active or inactive are those of the source. Cut-off read from the data, not from the text of the source: active = GI50 up to about 1.1 µM and inactive = higher.

Experiments:
Test in all cases: NCI-60 cell line screen, 48 h
MDA-N = system: MDA-N
A498 = system: A498
TK-10 = system: TK-10
MCF7 = system: MCF7
SW-620 = system: SW-620
T47D = system: T47D
DU-145 = system: DU-145
HCT-15 = system: HCT-15
NCI-H23 = system: NCI-H23
SK-MEL-28 = system: SK-MEL-28
IGROV-1 = system: IGROV-1
SF-295 = system: SF-295
U-251 = system: U-251
SNB-75 = system: SNB-75
SF-268 = system: SF-268
UO-31 = system: UO-31
HCC 2998 = system: HCC 2998
CCRF-CEM = system: CCRF-CEM
OVCAR-3 = system: OVCAR-3
SNB-19 = system: SNB-19

| Compound | GI50 (MDA-N) | GI50 (A498) | GI50 (TK-10) | GI50 (MCF7) | GI50 (SW-620) | GI50 (T47D) | GI50 (DU-145) | GI50 (HCT-15) [µM] | GI50 (NCI-H23) | GI50 (SK-MEL-28) | GI50 (IGROV-1) | GI50 (SF-295) | GI50 (U-251) | GI50 (SNB-75) | GI50 (SF-268) | GI50 (UO-31) | GI50 (HCC 2998) | GI50 (CCRF-CEM) | GI50 (OVCAR-3) | GI50 (SNB-19) |
| --- | --- | --- | --- | --- | --- | --- | --- | --- | --- | --- | --- | --- | --- | --- | --- | --- | --- | --- | --- | --- |
| C[C@@H]1CCC2[C@@H](C)[C@@H](OCCO[C@H]3OC4O[C@@]5(C)CCC6[C@H](C)CCC([C@H]3C)[C@@]46OO5)OC3O[C@@]4(C)CCC1[C@]32OO4 (stereo partly drawn) | 0.219 µM (active) | 1.92 µM (inactive) | 0.206 µM (active) | 0.0312 µM (active) | 0.0537 µM (active) | 0.0263 µM (active) | 0.171 µM (active) | 0.0238 | 0.115 µM (active) | 2.86 µM (inactive) | 0.0652 µM (active) | 0.405 µM (active) | 0.0902 µM (active) | 0.546 µM (active) | 0.233 µM (active) | 0.201 µM (active) | 6.92 µM (inactive) | 0.0682 µM (active) |  |  |
| CCC(CCC(C)C1CCC2C3CC=C4CC(OC5OC(CO)C(O)C(O)C5O)CCC4(C)C3CCC12C)C(C)C (stereo not drawn) | > 100 µM (inactive) | > 100 µM (inactive) | > 100 µM (inactive) | > 100 µM (inactive) | > 100 µM (inactive) | > 100 µM (inactive) | > 100 µM (inactive) | > 100 | > 100 µM (inactive) | > 100 µM (inactive) | > 100 µM (inactive) | 98.9 µM (inactive) | > 100 µM (inactive) |  | > 100 µM (inactive) | > 100 µM (inactive) | > 100 µM (inactive) | > 100 µM (inactive) | > 100 µM (inactive) | > 100 µM (inactive) |
| CC(=O)NC1C(OCc2ccccc2)OC(CO)C(O)C1OC(C)C(=O)NC(C(=O)NC(CCC(=O)NCCCCNc1c2ccccc2nc2cccc([N+](=O)[O-])c12)C(N)=O)C(C)C (stereo not drawn) | 1.64 µM (inactive) | 1.84 µM (inactive) | 3.1 µM (inactive) | 0.499 µM (active) | 0.993 µM (active) | 1.82 µM (inactive) | 2.55 µM (inactive) | 3.21 | 1.79 µM (inactive) | 2.67 µM (inactive) | 2.05 µM (inactive) | 4.99 µM (inactive) | 3.21 µM (inactive) | 2.7 µM (inactive) | 2.99 µM (inactive) | 2.89 µM (inactive) | 1.01 µM (active) |  | 2.13 µM (inactive) | 4.84 µM (inactive) |
| CCOC(=O)c1nc(SC)sc1NC(=O)c1ccc(OC)cc1 | > 100 µM (inactive) | 15.8 µM (inactive) | 21.1 µM (inactive) | 46.5 µM (inactive) | 49.1 µM (inactive) | 98.2 µM (inactive) | > 100 µM (inactive) | > 100 | > 100 µM (inactive) | 75 µM (inactive) | > 100 µM (inactive) | > 100 µM (inactive) | 23.9 µM (inactive) |  | > 100 µM (inactive) | > 100 µM (inactive) | 43.6 µM (inactive) | > 100 µM (inactive) | > 100 µM (inactive) | 75.7 µM (inactive) |
| COc1ccc(C2=NN(C(=O)c3ccccc3)C(O)(c3cc(F)c(Cl)cc3Cl)C2)cc1OC (stereo not drawn) | 57.5 µM (inactive) | 32.1 µM (inactive) | 35.9 µM (inactive) | 32.1 µM (inactive) | > 100 µM (inactive) | 50.8 µM (inactive) | 39 µM (inactive) | > 100 | 42.3 µM (inactive) | 49.8 µM (inactive) | 40.1 µM (inactive) | 29.5 µM (inactive) | 32.4 µM (inactive) |  | 55.5 µM (inactive) | 30.9 µM (inactive) | 30.9 µM (inactive) | > 100 µM (inactive) | 20.4 µM (inactive) | 36.5 µM (inactive) |
| CC(=O)N[C@@H](Cc1ccc(O)cn1)C(=O)NCc1ccc2c(c1)OCO2 | > 100 µM (inactive) | > 100 µM (inactive) | > 100 µM (inactive) | > 100 µM (inactive) | > 100 µM (inactive) | > 100 µM (inactive) | > 100 µM (inactive) | > 100 | > 100 µM (inactive) | > 100 µM (inactive) | > 100 µM (inactive) | > 100 µM (inactive) | > 100 µM (inactive) |  | > 100 µM (inactive) | > 100 µM (inactive) | > 100 µM (inactive) | > 100 µM (inactive) | > 100 µM (inactive) | > 100 µM (inactive) |
